From patent EP2565188A1, “Novel photoactivatable paclitaxel derivatives and uses thereof, in particular in cellbiology and cancer treatment” (Max-Planck-Gesellschaft zur Förderung der Wissenschaften …, priority 2011, dated 2013) come the findings set out here.

Data set [1] concerns HeLa cells. The experiment in a line: Live cell imaging of the microtubule network (Tubulin Tracker / DRAQ5, CLSM). Format: cell-based, Human. The note with it: for cell morphology / mitosis in microscopy images / microtubule staining by Tubulin Tracker (fluorescence CLSM): 10 µM; for cell morphology / mitosis in microscopy images / microtubule staining by Tubulin Tracker (fluorescence CLSM) / concentrations at which the derivative bound to tubulin / inhibition of PTX bioactivity / binding of PTX to β-tubulin by the cage / concentration triggering the multiple nuclei pattern: 24 h; for inhibition of PTX bioactivity / binding of PTX to β-tubulin by the cage: concentrations up to 10 µM. The protocol:
(§1) Human cervix carcinoma cells, HeLa cells (#ACC57, DMSZ, Germany), were cultured in DMEM medium (Invitrogen) supplemented with 10% fetal calf serum (FCS, Gibco) in a humidified incubator at 37°C/5%CO2.
In order to visualize the influence of the PTX derivatives in the microtubule network of the cell, a live cell microscopy analysis of HeLa cells after incubation with 10 µM PTX derivatives for 24 hours was performed.
Specifically, microtubules and nuclei of HeLa cells were fluorescently stained with Tubulin Tracker (Invitrogen) and DRAQ5 (biostatus, United Kingdom) respectively, and imaged by a Leica TCS SP5 confocal laser scanning microscopy (CLSM). 30x10^4 HeLa cells were seeded in 8-well chamber slides (Lab-Tek, nunc, Germany) and the culture medium was replaced after ~16 h by compound supplemented medium (250 µL, DMEM, 10% FCS, 1% DMSO) or medium without compound (DMEM, 10% FCS, 1% DMSO) as a specific control. After 24h, cells were carefully washed with Hank's Buffered Saline Solution (HBSS, with Ca^2+ and Mg^2+, Invitrogen) and the buffer was replaced by a staining solution containing 250 nM Tubulin Tracker (Invitrogen) and 5 µM DRAQ5. The cells were stained for 30 min at 37°C/5% CO2 in a humidified incubator. The staining solution was replaced by HBSS and the cells were directly imaged with a 100x plan apochromat (1.4 NA) oil immersion objective on the CLSM system equipped with a CO2 incubator and a temperature control. Tubulin Tracker was excited with an argon laser (488 nm) and the emission was detected by 500-580 nm. DRAQ5 was excited with a HeNe laser (633 nm) and the emission was detected by 650-730 nm. The images have a voxel height and width of 90 nm. Bright field images grabbed with an Olympus IX-70 inverted microscope with a 20x phase contrast objective. Image processing performed with Leica LAS AF lite and ImageJ (Fiji).

A short description of data set [2]: Photocleavage study: irradiation at 360 nm, composition by HPLC. It counts as physicochemical. The note with it: 1 mM, 5% water in acetonitril, share of the labelled species. Here is the method: The photolysis of the compounds 2'-Nvoc-PTX and 2',7-bisNvoc-PTX was followed by UV and HPLC analysis of the correspondent solutions after exposure to light at λmax = 360 nm (2.7 mW/cm^2).
3 ml of a 1 mM solution of caged PTX in acetonitrile containing 5% water was placed into a quartz cuvette and was exposed at 360 nm for different irradiation times. Aliquots of 50 µl were taken after various irradiation times, and each aliquot was splitted in two parts. 20 µl were diluted to 400 µl to obtain 50 µM solution for UV-Vis characterisation. The 30 µl left from each aliquot were injected into the HPLC (20 µl loop, analytical column) in order to estimate the composition of the irradiated mixture.
Photocleavage of compound 2',7-bisNvoc-PTX was expected to yield the mono-substituted species 2'-Nvoc-PTX and 7-Nvoc-PTX as intermediates that can be further photolyzed to afford free PTX. In fact, HPLC analysis (Fig. 1) confirmed the presence of 2'-Nvoc-PTX (retention time, r.t.= 16.7 min) and 7-Nvoc-PTX (r.t. = 18.2 min) together with the starting compound 2',7-bisNvoc-PTX (r.t. = 21.3 min) and the fully deprotected PTX (r.t. = 11.1 min). The ratio of these compounds within the composition of the irradiated mixture changes with the exposure dose. Fig. 2 and Table B below show the compositional evolution of the mixture with increasing irradiation time as obtained by HPLC analysis. […] However, the influence of other structural factors in the photolytic mechanism cannot be ruled out. Compound 7-Nvoc-PTX could also be isolated from the irradiated mixture in milligram scale. Table B. Molar composition of a solution of 2',7-bisNvoc-PTX (1 mM, 5% water in acetonitril) after different irradiation times, as determined by analysis of HPLC graphs (Fig. 2)

Data set [3] deals with HeLa cells. Format: cell-based, Human. As to conditions: for cytotoxicity: concentrations at least up to 10 µM. Here is the method:
as §1
In order to evaluate the bioactivity of the caged PCT derivatives, their cytotoxicity was tested in vitro using HeLa cells. Cells were incubated with PTX and caged PTX derivatives at concentrations between 0.01 and 10 µM.
The effect of PTX and derivatives on cell vitality was measured in a combined assay determining cytotoxicity and cell number by propidium iodide (PI) staining. HeLa cells (2x10^4 cells/well) were diluted in cell culture medium (DMEM, 10 % FCS) and seeded in 96 well-plates (black plate, clear bottom, corning, Amsterdam, Netherlands). The culture medium was replaced after ~16h by compound supplemented medium (200 µL, DMEM, 10 % FCS, 1 % DMSO) or medium without compound (DMEM, 10 % FCS, 1 % DMSO) as a specific control. After 48 h, dead cells with permeable cell membranes were stained with PI ([…], 15 min at 37°C, 5% CO2) and the PI fluorescence intensity was measured with a fluorescence plate reader (excitation wavelength 530 nm, emission wavelength 620 nm, Tecan Infinite M1000, Austria). Subsequently, the cells were lysed with 2% Triton X-100 diluted in DMEM (0.3% Triton X-100 per well, 15 min at 37°C, 5% CO2 and the PI fluorescence was measured again. The vitality of the cells was calculated by the ratio of dead cells (DC) before lyses and the total cell number (TCN) after lyses (1-DC/TCN).

Data set [4] can be described thus: Solubility test of 10 µM solutions in 1:1000 DMSO:PIPES buffer. It counts as physicochemical. The protocol:
10 mM solutions of PTX derivatives in DMSO were prepared. All substances were soluble in DMSO at this concentration. 10 µM solutions of were obtained by 1:1000 dilution of the stock solution into 80 mM PIPES buffer pH 6.8, containing 2 mM MgCl2 and 1 mM EGTA. Table A: solubility test of 10 µM solutions of PTX derivatives in 1:1000 DMSO:PIPES buffer

[5] abbreviates: 360 nm (2.7 mW/cm^2), irradiation time 0 min.
Setting [6] is: 360 nm, irradiation time 60 min.
The mark [7] stands for this setting: 360 nm, irradiation time 270 min.
Where [8] appears, read: 360 nm, irradiation time 450 min.
Setting [9] is: 360 nm, irradiation time 570 min.
Setting [10] is: 360 nm, irradiation time 735 min.
Setting [11] is: 360 nm, irradiation time 820 min.
[12] abbreviates: 360 nm, irradiation time 1585 min.
Where [13] appears, read: 10 µM in 1:1000 DMSO:PIPES buffer (80 mM, pH 6.8), time 1 hr.
Setting [14] is: 10 µM in 1:1000 DMSO:PIPES buffer (80 mM, pH 6.8), time 8 hrs.
The mark [15] stands for this setting: 10 µM in 1:1000 DMSO:PIPES buffer (80 mM, pH 6.8), time 24 hrs.
Where [16] appears, read: 10 µM in 1:1000 DMSO:PIPES buffer (80 mM, pH 6.8), time 30 hrs.
[17] abbreviates: 10 µM in 1:1000 DMSO:PIPES buffer (80 mM, pH 6.8, 2 mM MgCl2, 1 mM EGTA), time 5 min.

For the molecule `COc1cc(COC(=O)O[C@H]2C[C@H]3OC[C@@]3(OC(C)=O)[C@H]3[C@H](OC(=O)c4ccccc4)[C@]4(O)C[C@H](OC(=O)[C@H](O)[C@@H](NC(=O)c5ccccc5)c5ccccc5)C(C)=C([C@@H](OC(C)=O)C(=O)[C@]23C)C4(C)C)c([N+](=O)[O-])cc1OC` [7-Nvoc-PTX], in the data set on HeLa cells [1], the “cell morphology / mitosis in microscopy images” value is “formed an adherent monolayer similar to the negative control”. Moreover, the “microtubule staining by Tubulin Tracker (fluorescence CLSM)” value in the data set on HeLa cells [1] is “microtubules were less stained, tripolar spindles appeared and the cells developed multiple nuclei with different sizes”. The “concentrations at which the derivative bound to tubulin” value with HeLa cells [1] is on record as above 1 µM. Also, the “inhibition of PTX bioactivity / binding of PTX to β-tubulin by the cage” value in the data set on HeLa cells [1] is given as “not able to completely inhibit PTX bioactivity”. In the data set with HeLa cells [1] (pattern similar to 2 nM PTX (Fig. 6)), the “concentration triggering the multiple nuclei pattern” value was 10 µM. Also, in the data set with HeLa cells [1] (at the concentration tested (10 µM)), the “prevention of mitotic blocking relative to 2'-Nvoc-PTX” value was ~ 200 fold. Besides, the “Molar composition of a solution of 2',7-bisNvoc-PTX after irradiation” value (shortened to “Molar composition”) in data set [2] (setting [5]) came to 0%; in data set [2] (setting [6]), 3.2%; in data set [2] (setting [7]), 8.6%; in data set [2] (setting [8]), 15.3%; in data set [2] (setting [9]), 14.9%; in data set [2] (setting [10]), 18.4%. The “Molar composition” value is given as 16.4% in data set [2] (setting [11]) and 7.8% in data set [2] (setting [12]). Further, the cytotoxicity result in the data set on HeLa cells [3] (48 h) is “did not show any cytotoxicity”.
With `COc1cc(COC(=O)O[C@H]2C[C@H]3OC[C@@]3(OC(C)=O)[C@H]3[C@H](OC(=O)c4ccccc4)[C@]4(O)C[C@H](OC(=O)[C@H](OC(=O)OCc5cc(OC)c(OC)cc5[N+](=O)[O-])[C@@H](NC(=O)c5ccccc5)c5ccccc5)C(C)=C([C@@H](OC(C)=O)C(=O)[C@]23C)C4(C)C)c([N+](=O)[O-])cc1OC` [2',7-bisNvoc-PTX], the “solubility test (appearance of solution)” value is “clear solution” in data set [4] (setting [13]); “clear solution” in data set [4] (setting [14]); “clear solution” in data set [4] (setting [15]); “turbid solution” in data set [4] (setting [16]); “clear solution” in data set [4] (setting [17]). Further, the “microtubule staining by Tubulin Tracker (fluorescence CLSM)” value in the data set on HeLa cells [1] was “evenly stained by Tubulin Tracker and showed similar patterns than the negative control”. Besides, the “inhibition of PTX bioactivity / binding of PTX to β-tubulin by the cage” value in the data set with HeLa cells [1] is reported as “effectively inhibited binding of PTX to β-tubulin”. The “Molar composition” value turned out to be 100% in data set [2] (setting [5]); 90.5% in data set [2] (setting [6]); 72.3% in data set [2] (setting [7]); 51.1% in data set [2] (setting [8]); 42.2% in data set [2] (setting [9]); 27.5% in data set [2] (setting [10]). Moreover, the entries for the “Molar composition” value in data set [2] (setting [11]) and in data set [2] (setting [12]) were 24.3% and 6.1%, respectively. Also, the cytotoxicity result with HeLa cells [3] (48 h) was “did not show any cytotoxicity”. Besides, the “vitality of cells after incubation with irradiated solutions” value in the data set on HeLa cells [3] (irradiated solutions of 2',7-bisNvoc-PTX, longer irradiation times) turned out to be 0.5. For the same molecule, the “cytotoxic effects of irradiated solutions” value with HeLa cells [3] (irradiated solutions of 2',7-bisNvoc-PTX, shortest irradiation time) is “Cytotoxic effects were visible already at the shortest irradiation time”.
As to `COc1cc(COC(=O)O[C@@H](C(=O)O[C@H]2C[C@@]3(O)[C@@H](OC(=O)c4ccccc4)[C@@H]4[C@]5(OC(C)=O)CO[C@@H]5C[C@H](O)[C@@]4(C)C(=O)[C@H](OC(C)=O)C(=C2C)C3(C)C)[C@@H](NC(=O)c2ccccc2)c2ccccc2)c([N+](=O)[O-])cc1OC` [2'-Nvoc-PTX], the “solubility test (appearance of solution)” value in data set [4] (setting [13]) is “clear solution”; in data set [4] (setting [14]), “clear solution”; in data set [4] (setting [15]), “turbid solution”; in data set [4] (setting [16]), “Suspension”; in data set [4] (setting [17]) it was “clear solution”. In addition, in the data set on HeLa cells [1], the “cell morphology / mitosis in microscopy images” value is given as “showed similar results to free PTX”. Besides, the “concentrations at which the derivative bound to tubulin” value in the data set with HeLa cells [1] is above 0.01 µM. Further, in the data set with HeLa cells [1], the “inhibition of PTX bioactivity / binding of PTX to β-tubulin by the cage” value was “not able to completely inhibit PTX bioactivity”. Moreover, the “concentration triggering the multiple nuclei pattern” value with HeLa cells [1] (patterns similar between the compounds (Fig. 6)) came to 0.05 µM. In addition, the “Molar composition” value in data set [2] (setting [5]) came out at 0%; in data set [2] (setting [6]) it was 6.3%; in data set [2] (setting [7]) it was 17.4%; in data set [2] (setting [8]), 27.6%; in data set [2] (setting [9]), 32.3%; in data set [2] (setting [10]), 35.6%. Besides, the “Molar composition” value amounted to 38.1% in data set [2] (setting [11]) and 25.6% in data set [2] (setting [12]). For the same molecule, the reduction in vitality in the data set on HeLa cells [3] (48 h, at 0.5 µM) was ~ 25%. Further, in the data set with HeLa cells [3] (vitality results), the “concentration range over which the derivative can be regarded as caged PTX” value is recorded as below 0.1 µM.
